Data published in patent publication US5358936A, “Anionic furanose derivatives, methods of making and using the same” (Gordon; Paul, priority 1991, dated 1994).
Values joined by “and” are separate entries in the source; they are usually repeats but may differ in a detail not shown here. Identical values can stand only once. Counter-ions that a name gives are not always drawn.

Assays:
[1] = Chronic toxicity in C57 Black mice by drinking water (Example 29 B); type: in vivo; details: 28 days, average daily dose 175 mg/kg
Procedure: However, eight mice were treated with Compound III by drinking water, for a period of 28 days. During this time, the average daily dose consumed was 175 mg/kg.

mouse paw = assay: Mouse paw edema provoked by neutral proteases (Example 32); type: in vivo; details: two hours; SOD 150 units IV; Compound III 50 mg/kg IP and IV; SOD P<0.05, Compound III P<0.01
Procedure: Both tryptic activity and collagenase activity are components of the tissue-injuring neutral proteinase activities secreted by neutrophils. Collagenase activity has also been associated with injury to cartilage; and, in another context, with the micro-injury to blood vessels that permits the extravasation and metastasis of, and by, tumor cells.
The effects of Compound III on rat and mouse paw edema as provoked by injection of these enzymes were evaluated. SOD injected IV and Compound III injected IP and IV at zero time, (as in Example 25), inhibited edema at two hours by from 33-40 percent, in both species. […] Both drug effects were significant by t test, SOD at P<0.05 and Compound III at P<0.01.

rat paw = assay: Post-ischemic reperfusion paw swelling (Example 22); type: in vivo, Sprague Dawley male rats; details: for % Change as a result of treatment / Paw swelling, Mean ± SE: another study; for Paw swelling, Mean ± SE: i.p. 45 minutes prior; for Post-ischemic reperfusion 30 minute paw swelling, Mn ± SE: P < 0.02
Description: This important disease model is used to evaluate aspects of tissue injury that occur in heart attack, or myocardial infarction, and stroke. Under these conditions, a significant period of injury can occur after blood flow has been restored, during the period of reperfusion.
To produce ischemia, blood flow to the left hind foot was largely interrupted by application of a tourniquet made up of two size 18 rubber bands wound eight times around the leg just behind the heel. […] Both application and removal of tourniquet were carried out under ether anesthesia. Injury was equated with organ swelling, which was assayed by measurement of the dorsoventral foot diameter with a Schnelltaster caliper, just before application of the tourniquet and at various times following tourniquet removal, during the reperfusion period.
Rats employed were Sprague Dawley males, weighing 240-280 grams. Drug comparisons were made here employing measurements 30 minutes into the reperfusion period. The widely studied drug allopurinol, a xanthine oxidase inhibitor and a free radical scavenging agent, used in the treatment of gout, and widely used to suppress experimental post-ischemic reperfusion injury was used as an experimental treatment standard. In studies below, allopurinol and all new drugs were given intraperitoneally 45-60 minutes prior to application of the tourniquet. Data are reported as the mean swelling (Mn)±standard error (SE). […] Group n is 5 or 6.
In another study, drug comparisons were made at various times after the reperfusion period. In this study, control and drug treatment groups were as above.

rat stomachs = assay: Gastric pathology following inflammatory stress and indomethacin, food-deprived rats (Example 21); type: in vivo
Procedure: Stress was induced by the following procedure. On day one, under ether anesthesia, 18 male Sprague Dawley rats were injected with a suspension of Zymosan A (1 mg/ml in normal saline; Sigma Chemical Co.) in each hind paw. Swelling developed and persisted. This treatment generated activated blood complement locally (including the C5a moiety), which then spread by the bloodstream throughout the animal.
Twenty-four hours later all rat paws were reinjected, this time with 0.1 ml of proinflammatory zymosan-activated rat serum containing additional amounts of inflammatory complement fragment C5a (as in Example 23, hereinafter). Five hours later 30 mg/kg indomethacin in an aqueous suspension was given to nine such rats by oral garage. These rats also received a subcutaneous injection of 0.1 ml normal saline. Nine other such rats were given indomethacin as above, and Compound III (50 mg/kg in normal saline subcutaneously). Four additional rats, not stressed (normal) were given water by garage as a placebo and saline subcutaneously. All rats were fed ad libitum on standard diet.
In contrast to the study of Example 20, above, in this study animals were food deprived for 24 hours before and also during the 24 hours following drug treatments. All animals were subjected to the inflammatory stress as described in Example 20. Eight such rats received 30 mg/kg indomethacin, and eight rats received indomethacin and Compound III (subcut., 50 mg/kg). Four rats, not stressed, were given placebo by garage.
All animals were sacrificed by ether euthanasia 24 hours later, and their stomachs evaluated for ulcer-related pathology.
In the stressed animals given indomethacin alone, pathology was much more severe than in Example 20. For scoring, therefore, the frequency of ulcers per rat stomach was quantified, and whether they were or were not bleeding.

peritoneal neutrophils = assay: In vitro neutrophil chemotaxis toward zymosan-activated rat serum (Example 24); type: cell-based, mouse; details: for Percent Inhibition of chemotaxis: tripotassium salt
Procedure, shortened: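 Peritoneal neutrophils (>90%) from mice 24 h after CFA injection; 1×10^5 cells placed above an 8 μm filter, with 20% zymosan-activated rat serum in RPMI 1640/10% FCS below. Incubated 6 h at 37 °C; Giemsa-stained cells on the filter underside counted, in duplicate. ID50 is the concentration inhibiting chemotaxis by 50%.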

## CC1(C)O[C@H]2O[C@H]([C@@H](COS(=O)(=O)O)OS(=O)(=O)O)[C@H](OS(=O)(=O)O)[C@H]2O1 [Compound III, 1,2-O-(2-Propylidene)-3,5,6-tri-O-sulfo-α-D-glucofuranose, tripotassium salt]
[1]
  body weight and appearance at termination versus controls: weighed as much as the controls, and looked sleeker
Mouse paw
  inhibition of edema: 33-40%
Rat paw; reperfusion time 20 mins., i.p.
  % Change as a result of treatment: -46%
Rat paw; reperfusion time 20 mins., control 8.20 ± 1.02
  Paw swelling, Mean ± SE: 4.60 ± 0.40 0.1 mm
Rat paw; reperfusion time 30 mins., i.p.
  % Change as a result of treatment: -36%
Rat paw; reperfusion time 30 mins., control 6.60 ± 0.87
  Paw swelling, Mean ± SE: 4.20 ± 0.37 0.1 mm
Rat paw; oral treatment route, after 20 minutes
  inhibition of ischemic rat paw edema: 44%
Rat paw; study A, 30 minutes reperfusion, 0.2 mg/kg i.p.
  Swelling change as a result of treatment: -53%
Rat paw; study A, Compound III 0.2 mg/kg i.p. 45-60 minutes before tourniquet, control 12.7 ± 0.98
  Post-ischemic reperfusion 30 minute paw swelling, Mn ± SE: 6.0 ± 0.32 0.1 mm
Rat paw; study B, 30 minutes, i.p., Compound III 0.2 mg/kg, allopurinol 20 mg/kg
  Swelling change as a result of treatment: -40%
Rat paw; study B, i.p., Compound III 0.2 mg/kg, allopurinol 20 mg/kg, control 20.5 ± 0.76
  Post-ischemic reperfusion 30 minute paw swelling, Mn ± SE: 12.2 ± 0.70 0.1 mm
Rat paw; study C, 0.2 mg/kg i.p., control 18.4 ± 0.54
  Post-ischemic reperfusion 30 minute paw swelling, Mn ± SE: 10.2 ± 0.28 0.1 mm
Rat paw; study C, 30 minutes, 0.2 mg/kg i.p.
  Swelling change as a result of treatment: -45%
Rat stomachs; eight rats
  bleeding ulcers in group: None were bleeding
Rat stomachs; indomethacin 30 mg/kg, Compound III 50 mg/kg subcut. where given, 24 hours, P<0.001 vs indomethacin alone
  Bleeding Ulcer Frequency, Mn ± SE: 0.00 Per Rat
Rat stomachs; indomethacin 30 mg/kg, Compound III 50 mg/kg subcut. where given, 24 hours, P<0.01 vs indomethacin alone
  Total Ulcer Frequency, n ± SE: 0.63 ± 0.42 Per Rat
Rat stomachs; indomethacin: all eight rats, indomethacin + Compound III: only two rats
  ulcers per affected rat: two and three
Peritoneal neutrophils
  times as potent as ibuprofen and prednisone in chemotaxis inhibition: 100-1000 times
Peritoneal neutrophils; Mus musculus, Neutrophil, 6 h, 20 percent zymosan-activated rat serum, six hours, 37° C., read-out: ID50 (molar concentration that inhibited chemotaxis by 50 percent)
  IC50: 0.2 µM
Peritoneal neutrophils; Mus musculus, Neutrophil, dose 0.01 μg/ml, read-out: Percent Inhibition of chemotaxis
  inhibition at 0.01 µg/mL: 1.5%
Peritoneal neutrophils; Mus musculus, Neutrophil, dose 100.0 μg/ml, read-out: Percent Inhibition of chemotaxis
  inhibition at 100 µg/mL: 68%
Peritoneal neutrophils; Mus musculus, Neutrophil, dose 200.0 μg/ml, read-out: Percent Inhibition of chemotaxis
  inhibition at 200 µg/mL: 60%
Peritoneal neutrophils; dose 1.0 μg/ml
  Percent Inhibition of chemotaxis: 69.0% and 65.0% and 90.0% and 88.5% and 77.0% and 63.5% and 70.0%
Peritoneal neutrophils; dose 10.0 μg/ml
  Percent Inhibition of chemotaxis: 87.0% and 76.0% and 92.5% and 97.5% and 74.5%
Peritoneal neutrophils; dose 100.0 μg/ml
  Percent Inhibition of chemotaxis: 80.5%
Peritoneal neutrophils; in vitro
  relative activity in inhibiting neutrophil chemotaxis, in words: more active than any of the other assayed compounds
